Tests used:
Androgen receptor [1] = biological target: T1, Androgen receptor (Homo sapiens, UniProt P10275)
T1 sequence (P10275 whole entry): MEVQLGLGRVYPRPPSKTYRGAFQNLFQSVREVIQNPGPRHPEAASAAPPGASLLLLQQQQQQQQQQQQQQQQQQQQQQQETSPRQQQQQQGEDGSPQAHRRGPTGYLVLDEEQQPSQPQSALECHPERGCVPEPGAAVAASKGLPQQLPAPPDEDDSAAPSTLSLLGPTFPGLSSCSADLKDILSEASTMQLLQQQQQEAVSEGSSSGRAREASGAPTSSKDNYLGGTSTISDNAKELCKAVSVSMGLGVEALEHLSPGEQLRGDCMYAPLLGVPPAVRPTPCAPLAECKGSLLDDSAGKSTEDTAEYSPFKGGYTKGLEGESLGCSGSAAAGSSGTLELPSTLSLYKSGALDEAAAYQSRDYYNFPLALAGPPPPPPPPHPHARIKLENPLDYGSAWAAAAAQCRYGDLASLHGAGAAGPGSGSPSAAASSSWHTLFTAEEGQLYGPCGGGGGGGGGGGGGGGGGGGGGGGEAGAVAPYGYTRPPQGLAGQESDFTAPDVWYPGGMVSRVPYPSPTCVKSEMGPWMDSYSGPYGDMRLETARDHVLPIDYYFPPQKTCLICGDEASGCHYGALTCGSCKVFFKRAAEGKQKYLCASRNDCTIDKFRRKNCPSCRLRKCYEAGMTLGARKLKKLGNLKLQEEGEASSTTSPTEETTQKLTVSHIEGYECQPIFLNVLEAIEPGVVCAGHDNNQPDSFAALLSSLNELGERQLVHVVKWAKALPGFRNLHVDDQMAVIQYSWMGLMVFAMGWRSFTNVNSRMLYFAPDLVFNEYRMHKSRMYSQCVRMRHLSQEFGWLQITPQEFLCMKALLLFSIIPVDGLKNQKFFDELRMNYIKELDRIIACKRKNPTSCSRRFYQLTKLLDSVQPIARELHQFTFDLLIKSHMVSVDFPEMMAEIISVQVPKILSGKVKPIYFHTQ
Description: Antagonistic activity (IC50) against human androgen receptor (hAR) in co-transfected CV-1 cell

[2] = biological target: T2, Mineralocorticoid receptor (Homo sapiens) (UniProt P08235); assay: (§1) Antagonistic activity against hMR in co-transfected CV-1 cell; format: functional, cell-based
T2 sequence (whole entry): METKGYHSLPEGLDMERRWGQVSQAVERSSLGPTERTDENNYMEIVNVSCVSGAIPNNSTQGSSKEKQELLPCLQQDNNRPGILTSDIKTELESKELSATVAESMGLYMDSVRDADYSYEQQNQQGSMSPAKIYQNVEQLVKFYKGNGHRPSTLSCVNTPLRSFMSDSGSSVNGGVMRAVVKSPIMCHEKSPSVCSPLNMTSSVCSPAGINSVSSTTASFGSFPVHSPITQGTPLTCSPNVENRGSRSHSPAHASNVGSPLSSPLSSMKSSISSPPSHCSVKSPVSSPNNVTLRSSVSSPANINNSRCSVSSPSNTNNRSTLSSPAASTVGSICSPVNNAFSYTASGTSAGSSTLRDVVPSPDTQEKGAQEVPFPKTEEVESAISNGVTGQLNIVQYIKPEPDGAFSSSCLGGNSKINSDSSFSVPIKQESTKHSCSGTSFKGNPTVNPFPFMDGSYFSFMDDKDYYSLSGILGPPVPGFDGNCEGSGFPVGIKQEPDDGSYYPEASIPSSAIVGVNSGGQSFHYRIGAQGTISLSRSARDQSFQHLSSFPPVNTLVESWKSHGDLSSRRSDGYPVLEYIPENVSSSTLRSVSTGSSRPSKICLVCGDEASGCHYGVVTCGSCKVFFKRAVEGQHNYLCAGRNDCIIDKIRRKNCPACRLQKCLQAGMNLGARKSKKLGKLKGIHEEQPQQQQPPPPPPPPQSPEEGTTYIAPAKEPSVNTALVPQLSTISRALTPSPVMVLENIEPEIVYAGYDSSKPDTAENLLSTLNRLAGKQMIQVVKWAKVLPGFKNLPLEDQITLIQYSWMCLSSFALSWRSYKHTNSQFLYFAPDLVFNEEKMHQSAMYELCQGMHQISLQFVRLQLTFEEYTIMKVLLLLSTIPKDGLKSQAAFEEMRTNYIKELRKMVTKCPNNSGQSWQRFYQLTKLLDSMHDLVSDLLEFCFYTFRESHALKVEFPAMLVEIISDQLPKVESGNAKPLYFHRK

Estrogen receptor [3] = biological target: T3, Estrogen receptor (Homo sapiens, UniProt Q92731+P03372); assay: (§2) Antagonistic activity against Estrogen receptor in co-transfected CV-1 cell; format: functional, cell-based
Estrogen receptor [4] = biological target: T3, Estrogen receptor; assay: as §2; format: functional, cell-based; remark: listed apart in the source
Glucocorticoid receptor = biological target: T4, Glucocorticoid receptor (Homo sapiens, UniProt P04150); assay: Antagonistic activity against Glucocorticoid receptor in co-transfected CV-1 cell; format: functional, cell-based
T4 sequence (P04150 whole entry): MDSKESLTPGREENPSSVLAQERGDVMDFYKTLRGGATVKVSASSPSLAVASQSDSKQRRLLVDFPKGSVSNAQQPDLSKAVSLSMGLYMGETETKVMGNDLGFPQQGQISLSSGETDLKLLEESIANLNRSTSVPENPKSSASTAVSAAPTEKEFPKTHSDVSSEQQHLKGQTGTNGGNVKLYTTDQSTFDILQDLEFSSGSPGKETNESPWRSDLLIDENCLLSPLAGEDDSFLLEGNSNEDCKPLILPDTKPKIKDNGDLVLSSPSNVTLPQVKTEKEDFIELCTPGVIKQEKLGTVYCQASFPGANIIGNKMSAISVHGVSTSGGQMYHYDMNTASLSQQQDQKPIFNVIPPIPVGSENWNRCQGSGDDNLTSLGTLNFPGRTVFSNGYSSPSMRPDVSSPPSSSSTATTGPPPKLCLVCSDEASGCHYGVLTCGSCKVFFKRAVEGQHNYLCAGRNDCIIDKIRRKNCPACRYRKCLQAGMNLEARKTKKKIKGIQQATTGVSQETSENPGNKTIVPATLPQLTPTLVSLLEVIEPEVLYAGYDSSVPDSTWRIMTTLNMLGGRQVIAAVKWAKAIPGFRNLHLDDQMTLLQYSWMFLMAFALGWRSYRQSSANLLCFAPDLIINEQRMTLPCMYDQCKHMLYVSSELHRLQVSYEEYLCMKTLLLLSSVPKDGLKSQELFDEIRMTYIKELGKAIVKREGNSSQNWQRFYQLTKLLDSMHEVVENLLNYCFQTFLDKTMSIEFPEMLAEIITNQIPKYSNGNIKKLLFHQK

Androgen receptor [5] = biological target: T1, Androgen receptor; assay: Binding affinity against Androgen receptor transfected into COS cells
[6] = biological target: T5, Mineralocorticoid receptor (Homo sapiens, UniProt P08235); assay: as §1; format: functional, cell-based
T5 sequence (P08235 whole entry): T2 sequence (whole entry)

Row | SMILES | IC50 (Androgen receptor [1]) | Efficacy [2] | IC50 (Estrogen receptor [3]) | Efficacy (Estrogen receptor [4]) | IC50 (Glucocorticoid receptor) | Ki (Androgen receptor [5]) | IC50 [6]
1 | CC1(C)CCC[C@]2(C)c3cc4c(C(F)(F)F)cc(O)nc4cc3N[C@H]12 | 51 nM | 77% | > 10 µM | < 20% | 1.4 µM | 77 nM | 0.57 µM
2 | CN1c2cc3c(cc2[C@H]2CCCC[C@H]21)c(C(F)(F)F)cc(=O)n3C | 36 nM | < 20% | > 10 µM | < 20% | > 10 µM | 10 nM | > 10 µM
3 | C[C@H]1CC[C@H]2Nc3cc4c(cc3[C@H]2C1)c(C(F)(F)F)cc(=O)n4C | 48 nM | < 20% | > 10 µM | < 20% | > 10 µM | 94 nM | > 10 µM

From ChEMBL document CHEMBL1130772, “New nonsteroidal androgen receptor modulators based on 4-(trifluoromethyl)-2(1H)-pyrrolidino[3,2-g] quinolinone” (Bioorg Med Chem Lett, 1998)
